Here are results for six compounds from US9963445B2, “Chemical compounds” (SYNGENTA PARTICIPATIONS AG, priority 2013, dated 2018).

Holding throughout (format): in vivo
Test [1] has as its system Alopecurus myosuroides. The test can be described thus: Pre-emergence herbicidal activity, glasshouse pot test. Particulars: pre-emergence spray, rate 1000 g/ha, evaluated after 13 days, scale 0-5. In short, it runs like this:
(§1)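 Seeds sown in standard soil were sprayed one day after sowing, before emergence, with compound formulated in acetone/water (50:50) plus 0.5% Tween 20. Plants were grown at 24/16 °C day/night, 14 h light, 65% humidity, watered twice daily, and damage was scored after 13 days (0 = none, 5 = total).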

For test [2], the system named is Setaria faberi. Described as above. The note with it: pre-emergence spray, rate 1000 g/ha, evaluated after 13 days, scale 0-5. A digest of the protocol:
as §1

The subject of test [3] is Amaranthus retroflexus. The description is as above. The note with it: pre-emergence spray, rate 1000 g/ha, evaluated after 13 days, scale 0-5. A digest of the protocol: as §1
In test [4] the test system is Echinochloa crus-galli. The test is described as above. Particulars: pre-emergence spray, rate 1000 g/ha, evaluated after 13 days, scale 0-5. In short, it runs like this: as §1
For test [5], the system named is Abutilon theophrasti. The description is as above. The note with it: pre-emergence spray, rate 1000 g/ha, evaluated after 13 days, scale 0-5. A digest of the protocol: as §1
Test [6] deals with zea mays. The test is described as above. The note with it: pre-emergence spray, rate 1000 g/ha, evaluated after 13 days, scale 0-5. A digest of the protocol: as §1
Test [7] has as its system Alopecurus myosuroides. Put plainly: Post-emergence herbicidal activity, glasshouse pot test. Further details: key: 0 = no damage to plant, 5 = total damage to plant. The note with it: Application post-emergence, rate 1000 g/ha, evaluated after 13 days. A digest of the protocol: (§2)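 After 8 days of glasshouse growth at 24/16 °C day/night, potted plants receive a foliar spray of the formulated compound (0.5% Tween 20 in acetone/water). They are then watered twice daily under unchanged conditions, and phytotoxicity is scored 0–5 after 13 days.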

For test [8], the system named is Setaria faberi. Described as above. Further details: key: 0 = no damage to plant, 5 = total damage to plant. The note with it: Application post-emergence, rate 1000 g/ha, evaluated after 13 days. In short, it runs like this:
as §2

The test system of test [9] is Amaranthus retroflexus. The description is as above. Further details: key: 0 = no damage to plant, 5 = total damage to plant. Particulars: Application post-emergence, rate 1000 g/ha, evaluated after 13 days. A digest of the protocol: as §2
Test [10] concerns Echinochloa crus-galli. The description is as above. Further details: key: 0 = no damage to plant, 5 = total damage to plant. The note with it: Application post-emergence, rate 1000 g/ha, evaluated after 13 days. A digest of the protocol:
as §2

Test [11] has as its system Abutilon theophrasti. The description is as above. Further details: key: 0 = no damage to plant, 5 = total damage to plant. Particulars: Application post-emergence, rate 1000 g/ha, evaluated after 13 days. In short, it runs like this: as §2
The subject of test [12] is zea mays. Described as above. Further details: key: 0 = no damage to plant, 5 = total damage to plant. The note with it: Application post-emergence, rate 1000 g/ha, evaluated after 13 days. In short, it runs like this:
as §2

Structures are written as SMILES.

For `COC1=C(C)C(O)N(c2cc(C)c(C(=O)NC(C)C(C)C)cn2)C1=O` (stereo not drawn) [AI36], the “ALOMY damage score, application pre-emergence” value (from here on “ALOMY damage score”) in the test on Alopecurus myosuroides [1] turned out to be 4. Moreover, the “SETFA damage score, application pre-emergence” value (“SETFA damage score” for short) with Setaria faberi [2] was found to be 5. The “AMARE damage score, application pre-emergence” value (“AMARE damage score” for short) with Amaranthus retroflexus [3] is 5. The “ECHCG damage score, application pre-emergence” value (“ECHCG damage score” for short) in the test with Echinochloa crus-galli [4] was 4. The “ABUTH damage score, application pre-emergence” value (“ABUTH damage score” for short) with Abutilon theophrasti [5] worked out at 5. Moreover, the “ZEAMX damage score, application pre-emergence” value (“ZEAMX damage score” for short) with zea mays [6] is recorded as 2. The “ALOMY herbicidal damage score” value in the test with Alopecurus myosuroides [7] amounted to 5. In the test on Setaria faberi [8], the “SETFA herbicidal damage score” value was 5. For the same compound, in the test with Amaranthus retroflexus [9], the “AMARE herbicidal damage score” value is recorded as 5. Further, the “ECHCG herbicidal damage score” value in the test on Echinochloa crus-galli [10] is 5. Further, the “ABUTH herbicidal damage score” value with Abutilon theophrasti [11] is recorded as 5. For the same compound, in the test with zea mays [12], the “ZEAMX herbicidal damage score” value is 3.

For `CCC(CNC(=O)c1cnc(N2C(=O)C(OC)=C(C)C2O)cc1C)C(F)(F)F` (stereo not drawn) [AI37], the “ALOMY damage score” value in the test with Alopecurus myosuroides [1] came to 4. Also, the “SETFA damage score” value in the test on Setaria faberi [2] is on record as 5. In addition, the “AMARE damage score” value in the test on Amaranthus retroflexus [3] is 5. Moreover, the “ECHCG damage score” value with Echinochloa crus-galli [4] is 5. Besides, the “ABUTH damage score” value with Abutilon theophrasti [5] came to 5. Further, the “ZEAMX damage score” value in the test on zea mays [6] turned out to be 2. Further, in the test on Alopecurus myosuroides [7], the “ALOMY herbicidal damage score” value is 5. The “SETFA herbicidal damage score” value with Setaria faberi [8] amounted to 5. In the test on Amaranthus retroflexus [9], the “AMARE herbicidal damage score” value was 5. Also, in the test with Echinochloa crus-galli [10], the “ECHCG herbicidal damage score” value was 5. In addition, the “ABUTH herbicidal damage score” value in the test with Abutilon theophrasti [11] came out at 5. Besides, in the test with zea mays [12], the “ZEAMX herbicidal damage score” value came to 5.

As to `COC1=C(C)C(O)N(c2cc(C(F)(F)F)c(C(=O)CC#N)cn2)C1=O` (stereo not drawn) [AI38], the “ALOMY damage score” value in the test with Alopecurus myosuroides [1] turned out to be 3. In addition, the “SETFA damage score” value in the test on Setaria faberi [2] came out at 3. Besides, the “AMARE damage score” value with Amaranthus retroflexus [3] turned out to be 5. The “ECHCG damage score” value in the test with Echinochloa crus-galli [4] stood at 4. For the same compound, the “ABUTH damage score” value in the test with Abutilon theophrasti [5] is reported as 1. In addition, the “ZEAMX damage score” value in the test with zea mays [6] amounted to 2. For the same compound, the “ALOMY herbicidal damage score” value in the test with Alopecurus myosuroides [7] was 4. The “SETFA herbicidal damage score” value in the test on Setaria faberi [8] is given as 4. Besides, the “AMARE herbicidal damage score” value in the test with Amaranthus retroflexus [9] is listed as 5. Further, the “ECHCG herbicidal damage score” value with Echinochloa crus-galli [10] was determined as 5. Moreover, the “ABUTH herbicidal damage score” value with Abutilon theophrasti [11] is on record as 4. In addition, in the test on zea mays [12], the “ZEAMX herbicidal damage score” value is 2.

Consider `COC1=C(Br)C(=O)N(c2cc(C(F)(F)F)ccn2)C1O` (stereo not drawn) [AJ1, 4-bromo-2-hydroxy-3-methoxy-1-[4-(trifluoromethyl)-2-pyridyl]-2H-pyrrol-5-one], for which the “ALOMY damage score” value with Alopecurus myosuroides [1] was 4. In the test with Setaria faberi [2], the “SETFA damage score” value is 5. Also, in the test on Amaranthus retroflexus [3], the “AMARE damage score” value stood at 4. Also, the “ECHCG damage score” value in the test on Echinochloa crus-galli [4] is on record as 5. In the test with Abutilon theophrasti [5], the “ABUTH damage score” value amounted to 5. In addition, the “ZEAMX damage score” value in the test on zea mays [6] came out at 2. Also, the “ALOMY herbicidal damage score” value with Alopecurus myosuroides [7] was 5. Further, the “SETFA herbicidal damage score” value in the test with Setaria faberi [8] stood at 5. In the test on Amaranthus retroflexus [9], the “AMARE herbicidal damage score” value was found to be 5. In addition, the “ECHCG herbicidal damage score” value with Echinochloa crus-galli [10] amounted to 5. Moreover, the “ABUTH herbicidal damage score” value in the test on Abutilon theophrasti [11] came to 5. Moreover, the “ZEAMX herbicidal damage score” value with zea mays [12] was 2.

`COC1=C(OC)C(O)N(c2cc(F)ccn2)C1=O` (stereo not drawn) [AK3]: in the test with Alopecurus myosuroides [1], the “ALOMY damage score” value is 2. Also, in the test with Setaria faberi [2], the “SETFA damage score” value is given as 3. Moreover, the “AMARE damage score” value in the test on Amaranthus retroflexus [3] was 5. In addition, in the test with Echinochloa crus-galli [4], the “ECHCG damage score” value came out at 4. Further, the “ABUTH damage score” value in the test on Abutilon theophrasti [5] came out at 5. In the test with zea mays [6], the “ZEAMX damage score” value is on record as 2. Besides, the “ALOMY herbicidal damage score” value with Alopecurus myosuroides [7] was determined as 4. In addition, in the test with Setaria faberi [8], the “SETFA herbicidal damage score” value was 5. For the same compound, the “AMARE herbicidal damage score” value with Amaranthus retroflexus [9] amounted to 4. Also, in the test with Echinochloa crus-galli [10], the “ECHCG herbicidal damage score” value turned out to be 5. Also, in the test with Abutilon theophrasti [11], the “ABUTH herbicidal damage score” value was determined as 5. For the same compound, the “ZEAMX herbicidal damage score” value with zea mays [12] amounted to 4.

Take `COC1=C(OC)C(O)N(c2cc(C(F)(F)F)c(C(F)(F)F)cn2)C1=O` (stereo not drawn) [AK4]: the “ALOMY damage score” value in the test on Alopecurus myosuroides [1] is listed as 1. In addition, the “SETFA damage score” value with Setaria faberi [2] was found to be 0. The “AMARE damage score” value with Amaranthus retroflexus [3] turned out to be 1. Also, the “ECHCG damage score” value in the test on Echinochloa crus-galli [4] is reported as 0. In addition, in the test with Abutilon theophrasti [5], the “ABUTH damage score” value was 1. In addition, in the test with zea mays [6], the “ZEAMX damage score” value amounted to 1. In addition, in the test with Alopecurus myosuroides [7], the “ALOMY herbicidal damage score” value was 3. Also, the “SETFA herbicidal damage score” value in the test on Setaria faberi [8] came out at 3. Further, in the test on Amaranthus retroflexus [9], the “AMARE herbicidal damage score” value is 5. Further, the “ECHCG herbicidal damage score” value with Echinochloa crus-galli [10] was found to be 5. Besides, in the test on Abutilon theophrasti [11], the “ABUTH herbicidal damage score” value is 5. The “ZEAMX herbicidal damage score” value in the test with zea mays [12] came out at 2.
